We go through eleven compounds from US20170129916A1, “NOVEL BETULINIC PROLINE IMIDAZOLE DERIVATIVES AS HIV INHIBITORS” (HETERO RESEARCH FOUNDATION, priority 2014, published 2017).

Molecules are shown by their SMILES.

In series [1] the test system is HIV-1 strains, for e.g., 92HT599. Put plainly: Antiviral activity: p24 estimation in MT-2 cells infected with HIV-1. It is filed as cell-based. As to conditions: Human immunodeficiency virus 1, MT2, MT-2 cells infected with HIV-1, p24, ~96 hours; for IC50: read-out: Antiviral activity IC50 (nM) Efficacy IC50. Summed up: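 MT-2 cells infected with HIV-1 (e.g. 92HT599), plated at 30,000 cells/well with compound (DMSO ≤1%) and incubated ~96 h. Supernatant p24 quantified by kit; percent inhibition relative to vehicle controls.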

A short description of series [2]: Single dose oral pharmacokinetic study. In kind it is in vivo. As to conditions: mouse, mice, 30 mg/kg, plasma; for AUC(0-t): read-out: Mice oral PK @30 mg/kg AUC 0-t; for Cmax: read-out: Mice oral PK @30 mg/kg Cmax. An outline of the steps:
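Rats or mice received 30 mg/kg orally at 10 ml/kg dose volume. Retro-orbital blood was taken into K3 EDTA at defined intervals under light ether anesthesia and centrifuged to plasma. Plasma levels were measured by LC-MS-MS.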

For the compound `C=C(C)[C@@H]1CC[C@]2(C(=O)N3C[C@H](OCCOC)C[C@H]3c3nc(-c4ccc(F)cc4)c[nH]3)CC[C@]3(C)[C@H](CC[C@@H]4[C@@]5(C)CC[C@H](OC(=O)CC(C)(C)C(=O)O)C(C)(C)[C@@H]5CC[C@]43C)[C@@H]12` [Compound 45, 4-(((1R,3aS,5aR,5bR,7aR,9S,11aR,11bR,13aR,13bR)-3a-((2S,4R)-2-(4-(4-fluorophenyl)-1H-imidazol-2-yl)-4-(2-methoxyethoxy)pyrrolidine-1-carbonyl)-5a,5b,8,8,11a-pentamethyl-1-(prop-1-en-2-yl)icosahydro-1H-cyclopenta[a]chrysen-9-yl)oxy)-2,2-dimethyl-4-oxo butanoic acid], the IC50 in series [1] is 0.3 nM. Besides, in series [2], the AUC(0-t) was found to be 275 µg·h/mL and the Cmax came to 11500 ng/mL.
Turning to `C=C(C)[C@@H]1CC[C@]2(C(=O)N3CCC[C@H]3c3ncc(-c4ccc(OC)cc4)[nH]3)CC[C@]3(C)[C@H](CC[C@@H]4[C@@]5(C)CC[C@H](OC(=O)CC(C)(C)C(=O)O)C(C)(C)[C@@H]5CC[C@]43C)[C@@H]12` [Compound 46, 4-(((1R,3aS,5aR,5bR,7aR,9S,11aR,11bR,13aR,13bR)-3a-((S)-2-(5-(4-methoxyphenyl)-1H-imidazol-2-yl)pyrrolidine-1-carbonyl)-5a,5b,8,8,11a-pentamethyl-1-(prop-1-en-2-yl)icosahydro-1H-cyclopenta[a]chrysen-9-yl)oxy)-2,2-dimethyl-4-oxobutanoic acid], in series [1], the IC50 is 11 nM. Further, in series [2], the AUC(0-t) was 153 µg·h/mL and the Cmax came out at 8710 ng/mL.
Take `C=C(C)[C@@H]1CC[C@]2(C(=O)N3CCC[C@H]3c3nnc(-c4ccccc4)[nH]3)CC[C@]3(C)[C@H](CC[C@@H]4[C@@]5(C)CC[C@H](OC(=O)CC(C)(C)C(=O)O)C(C)(C)[C@@H]5CC[C@]43C)[C@@H]12` [Compound 48, 2,2-dimethyl-4-oxo-4-(((1R,3aS,5aR,5bR,7aR,9S,11aR,11bR,13aR,13bR)-5a,5b,8,8,11a-pentamethyl-3a-((S)-2-(5-phenyl-4H-1,2,4-triazol-3-yl)pyrrolidine-1-carbonyl)-1-(prop-1-en-2-yl)icosahydro-1H-cyclopenta[a]chrysen-9-yl)oxy)butanoic acid]: the IC50 in series [1] is 5.8 nM. Moreover, in series [2], the AUC(0-t) was determined as 299 µg·h/mL and the Cmax was found to be 20800 ng/mL.
The corresponding values for `CC1([C@@H]2CC[C@]3(C(=O)N4CCC[C@H]4c4ncc(-c5cccc(F)c5)[nH]4)CC[C@]4(C)[C@H](CC[C@@H]5[C@@]6(C)CC[C@H](OC(=O)[C@H]7C[C@@H](C(=O)O)C7(C)C)C(C)(C)[C@@H]6CC[C@]54C)[C@@H]23)CC1` [Compound 50, (1R,3S)-3-((((1R,3aS,5aR,5bR,7aR,9S,11aR,11bR,13aR,13bR)-3a-((S)-2-(5-(3-fluorophenyl)-1H-imidazol-2-yl)pyrrolidine-1-carbonyl)-5a,5b,8,8,11a-pentamethyl-1-(1-methylcyclopropyl)icosahydro-1H-cyclopenta[a]chrysen-9-yl)oxy)carbonyl)-2,2-dimethylcyclobutane-1-carboxylic acid] are 0.35 nM, 358 µg·h/mL and 13900 ng/mL.
In the same order, the values of `CC1([C@@H]2CC[C@]3(C(=O)N4CCC[C@H]4c4ncc(-c5ccccn5)[nH]4)CC[C@]4(C)[C@H](CC[C@@H]5[C@@]6(C)CC[C@H](OC(=O)[C@H]7C[C@@H](C(=O)O)C7(C)C)C(C)(C)[C@@H]6CC[C@]54C)[C@@H]23)CC1` [Compound 51, (1R,3S)-2,2-dimethyl-3-((((1R,3aS,5aR,5bR,7aR,9S,11aR,11bR,13aR,13bR)-5a,5b,8,8,11a-pentamethyl-1-(1-methylcyclopropyl)-3a-((S)-2-(5-(pyridin-2-yl)-1H-imidazol-2-yl)pyrrolidine-1-carbonyl)icosahydro-1H-cyclopenta[a]chrysen-9-yl)oxy)carbonyl)cyclobutane-1-carboxylic acid] are 43.3 nM, 160 µg·h/mL and 4930 ng/mL.
For `COCCO[C@@H]1C[C@@H](c2nc(-c3ccc(F)cc3)c[nH]2)N(C(=O)[C@]23CC[C@@H](C4(C)CC4)[C@@H]2[C@H]2CC[C@@H]4[C@@]5(C)CC[C@H](OC(=O)[C@H]6C[C@@H](C(=O)O)C6(C)C)C(C)(C)[C@@H]5CC[C@@]4(C)[C@]2(C)CC3)C1` [Compound 55, (1R,3S)-3-((((1R,3aS,5aR,5bR,7aR,9S,11aR,11bR,13aR,13bR)-3a-((2S,4R)-2-(4-(4-fluorophenyl)-1H-imidazol-2-yl)-4-(2-methoxyethoxy)pyrrolidine-1-carbonyl)-5a,5b,8,8,11a-pentamethyl-1-(1-methylcyclopropyl)icosahydro-1H-cyclopenta[a]chrysen-9-yl)oxy)carbonyl)-2,2-dimethylcyclobutane-1-carboxylic acid], the IC50 in series [1] was 1.04 nM. Also, in series [2], the AUC(0-t) was 381 µg·h/mL and the Cmax amounted to 14300 ng/mL.
Turning to `CC(C)(C)c1c[nH]c([C@@H]2CCCN2C(=O)[C@]23CC[C@@H](C4(C)CC4)[C@@H]2[C@H]2CC[C@@H]4[C@@]5(C)CC[C@H](OC(=O)[C@H]6C[C@@H](C(=O)O)C6(C)C)C(C)(C)[C@@H]5CC[C@@]4(C)[C@]2(C)CC3)n1` [Compound 56, (1R,3S)-3-((((1R,3aS,5aR,5bR,7aR,9S,11aR,11bR,13aR,13bR)-3a-((S)-2-(4-(tert-butyl)-1H-imidazol-2-yl)pyrrolidine-1-carbonyl)-5a,5b,8,8,11a-pentamethyl-1-(1-methylcyclopropyl)icosahydro-1H-cyclopenta[a]chrysen-9-yl)oxy)carbonyl)-2,2-dimethylcyclobutane-1-carboxylic acid], the IC50 in series [1] was 56.2 nM. For the same compound, in series [2], the AUC(0-t) came to 375 µg·h/mL and the Cmax stood at 12000 ng/mL.
In the case of `CC1([C@@H]2CC[C@]3(C(=O)N4CCC(c5ncc(-c6ccccc6)[nH]5)CC4)CC[C@]4(C)[C@H](CC[C@@H]5[C@@]6(C)CC[C@H](OC(=O)[C@H]7C[C@@H](C(=O)O)C7(C)C)C(C)(C)[C@@H]6CC[C@]54C)[C@@H]23)CC1` [Compound 57, (1R,3S)-2,2-dimethyl-3-((((1R,3aS,5aR,5bR,7aR,9S,11aR,11bR,13aR,13bR)-5a,5b,8,8,11a-pentamethyl-1-(1-methylcyclopropyl)-3a-(4-(5-phenyl-1H-imidazol-2-yl)piperidine-1-carbonyl)icosahydro-1H-cyclopenta[a]chrysen-9-yl)oxy)carbonyl)cyclobutane-1-carboxylic acid], in series [1], the IC50 was 4.42 nM. In addition, in series [2], the AUC(0-t) was 66.4 µg·h/mL and the Cmax came to 2790 ng/mL.
As to `CC1([C@@H]2CC[C@]3(C(=O)N4CCC[C@H]4c4ncc(C(F)(F)F)[nH]4)CC[C@]4(C)[C@H](CC[C@@H]5[C@@]6(C)CC[C@H](OC(=O)[C@H]7C[C@@H](C(=O)O)C7(C)C)C(C)(C)[C@@H]6CC[C@]54C)[C@@H]23)CC1` [Compound 59, (1R,3S)-2,2-dimethyl-3-((((1R,3aS,5aR,5bR,7aR,9S,11aR,11bR,13aR,13bR)-5a,5b,8,8,11a-pentamethyl-1-(1-methylcyclopropyl)-3a-((S)-2-(5-(trifluoromethyl)-1H-imidazol-2-yl)pyrrolidine-1-carbonyl)icosahydro-1H-cyclopenta[a]chrysen-9-yl)oxy)carbonyl)cyclobutane-1-carboxylic acid], the inhibition at 0.1 µM in series [1] (0.1 μM) is 71%. For the same compound, the inhibition at 1 µM in series [1] (1 μM) is 100%. Moreover, the IC50 in series [1] was 55.4 nM. In series [2], the AUC(0-t) came to 451 µg·h/mL and the Cmax was 15700 ng/mL.
Turning to `CC(C)(CC(=O)O[C@H]1CC[C@]2(C)[C@H]3CC[C@@H]4[C@H]5[C@H](C6(C)CC6)CC[C@]5(C(=O)N5CCC[C@H]5c5ncc(-c6ccccn6)[nH]5)CC[C@@]4(C)[C@]3(C)CC[C@H]2C1(C)C)C(=O)O` [Compound 62, 2,2-dimethyl-4-oxo-4-(((1R,3aS,5aR,5bR,7aR,9S,11aR,11bR,13aR,13bR)-5a,5b,8,8,11a-pentamethyl-1-(1-methylcyclopropyl)-3a-((S)-2-(5-(pyridin-2-yl)-1H-imidazol-2-yl)pyrrolidine-1-carbonyl)icosahydro-1H-cyclopenta[a]chrysen-9-yl)oxy)butanoic acid], the IC50 in series [1] was 0.8 nM. In addition, in series [2], the AUC(0-t) is 93.1 µg·h/mL and the Cmax came out at 7120 ng/mL.
As for `CC(C)(CC(=O)O)CC(=O)O[C@H]1CC[C@]2(C)[C@H]3CC[C@@H]4[C@H]5[C@H](C6(C)CC6)CC[C@]5(C(=O)N5CCC[C@H]5c5ncc(-c6ccccn6)[nH]5)CC[C@@]4(C)[C@]3(C)CC[C@H]2C1(C)C` [Compound 63, 3,3-dimethyl-5-oxo-5-(((1R,3aS,5aR,5bR,7aR,9S,11aR,11bR,13aR,13bR)-5a,5b,8,8,11a-pentamethyl-1-(1-methylcyclopropyl)-3a-((S)-2-(5-(pyridin-2-yl)-1H-imidazol-2-yl)pyrrolidine-1-carbonyl)icosahydro-1H-cyclopenta[a]chrysen-9-yl)oxy)pentanoic acid], the IC50 in series [1] is 3.6 nM. Further, in series [2], the AUC(0-t) turned out to be 120 µg·h/mL and the Cmax was 4470 ng/mL.

The IC50 is the concentration needed to halve the response being measured. For orientation: inhibition means the percentage by which the read-out fell short of the control.
